In patent publication US5512553A, “7-(substituted)-8-(substituted)-9-(substituted amino)-6-demethyl-6-deoxytetracyclines” (American Cyanamid Company, priority 1995, dated 1996):
Values after ≈ are worked out from the molar mass of the structure shown. Where a name gives a salt, the structure may show the parent alone. Read-outs that look alike come from different tables or passages of the source.

Assays:
Format in all cases: cell-based
[1] = tested on: S. aureus SMITH (MP) (sensitive); test: In vitro antibacterial evaluation, MIC by agar dilution; details: Staphylococcus aureus
Procedure: (§1) Method for In Vitro Antibacterial Evaluation (Table I)
(§2) The minimum inhibitory concentration (MIC), the lowest concentration of the antibiotic which inhibits growth of the test organism, is determined by the agar dilution method using Muller-Hinton II agar (Baltimore Biological Laboratories). An inoculum density of 1-5×10^5 CFU/ml and an antibiotic concentration (32-≤0.015 μg/ml) is used. The plates are incubated for 18 hours at 35° C. in a forced air incubator. The test organisms comprise strains sensitive to tetracycline and genetically defined strains that are resistant to tetracycline, due to inability to bind bacterial ribosomes (tetM).

[2] = tested on: E. coli UBMS 89-2 (sensitive); test: as above; details: Escherichia coli, Muller-Hinton II agar, 18 hours at 35° C.
Procedure: as §1, §2

[3] = tested on: Enteroc. spp. 12201; test: as above
Procedure: as §1, §2

[4] = tested on: E. coli ATCC 25922; test: as above; details: Escherichia coli
Procedure: as §1, §2

[5] = tested on: S. haemol. AVAH 88-3; test: as above
Procedure: as §1, §2

[6] = tested on: S. aureus IVES 2943 (meth. resistant); test: as above; details: Staphylococcus aureus
Procedure: as §1, §2

[7] = tested on: S. aureus UBMS 88-4 (sensitive); test: as above; details: Staphylococcus aureus, 18 h
Procedure: as §1, §2

[8] = tested on: E. coli UBMS 88-2 (sensitive); test: as above; details: Escherichia coli, 18 h
Procedure: as §1, §2

[9] = tested on: S. aureus IVES 1983 (MP) (meth. resistant); test: as above; details: Staphylococcus aureus
Procedure: as §1, §2

[10] = tested on: S. aureus ATCC 29213 (sensitive); test: as above; details: Staphylococcus aureus, ATCC29213; agar dilution, Muller-Hinton II agar, 18 hours at 35° C.; S. aureus ATCC 29213 (sensitive); read-out: MIC
Procedure: as §1, §2

[11] = tested on: S. faecal. ATCC 29212; test: as above
Procedure: as §1, §2

[12] = tested on: S. aureus UBMS 90-2 (tetM); test: microbe, parasite or virus in culture; details: Staphylococcus aureus, 18 h
Procedure: as §1, §2

[13] = tested on: E. coli UBMS 88-1 (tetB); test: microbe, parasite or virus in culture; details: Escherichia coli, 18 h
Procedure: as §1, §2

[14] = tested on: S. aureus UBMS 88-7 (tetK); test: microbe, parasite or virus in culture; details: Staphylococcus aureus, 18 h
Procedure: as §1, §2

[15] = tested on: E. coli UBMS 89-1 (tetM); test: microbe, parasite or virus in culture; details: Escherichia coli, 18 h
Procedure: as §1, §2

[16] = tested on: S. aureus UBMS 88-5 (tetM); test: microbe, parasite or virus in culture; details: Staphylococcus aureus, 18 h
Procedure: as §1, §2

[17] = tested on: S. aureus UBMS 90-1 (tetM); test: microbe, parasite or virus in culture; details: Staphylococcus aureus, 18 h
Procedure: as §1, §2

[18] = tested on: S. aureus UBMS 90-3 (sensitive); test: In vitro antibacterial evaluation, MIC by agar dilution; details: Staphylococcus aureus, 18 h
Procedure: as §1, §2

[19] = agar dilution, Muller-Hinton II agar, 18 hours at 35° C., S. aureus SMITH (MP) (sensitive), read-out: MIC
[20] = agar dilution, Muller-Hinton II agar, 18 hours at 35° C., Enteroc. spp. 12201, read-out: MIC
[21] = agar dilution, Muller-Hinton II agar, 18 hours at 35° C., S. faecal. ATCC 29212, read-out: MIC

In the case of `CN(C)[C@@H]1C(O)=C(C(N)=O)C(=O)[C@@]2(O)C(O)=C3C(=O)c4c(O)cc(Cl)cc4CC3CC12` (some centres unmarked) [Compound E, 8-Chloro-4-(dimethylamino)-1,4,4a,5,5a,6-11,12a-octahydro-3,10,12,12a-tetrahydroxy-1,11-dioxo-2-naphthacenecarboxamide sulfate], the MIC [1, 19] was 0.12 µg/mL, the MIC [2] was 16 µg/mL and the MIC [3, 20] was 1 µg/mL. The MIC ([4]; ATCC25922, 18 h) was 8 µg/mL, the MIC ([5]; agar dilution, Muller-Hinton II agar, 18 hours at 35° C., S. haemol. AVAH 88-3, read-out: MIC) was 0.5 µg/mL and the MIC ([6]; 18 h) was 4 µg/mL. The MIC [7] was 0.25 µg/mL, the MIC [8] was 16 µg/mL and the MIC ([9]; 18 h) was 4 µg/mL. It also gave an MIC [10] of 0.03 µg/mL, an MIC [11, 21] of 2 µg/mL and an MIC [12] of 1 µg/mL. For the same molecule, the MIC [13] was greater than 32 µg/mL, the MIC [14] was 4 µg/mL and the MIC [15] was 16 µg/mL. It also gave an MIC [16] of 2 µg/mL and an MIC [17] of 2 µg/mL.
`CN(C)[C@@H]1C(O)=C(C(N)=O)C(=O)[C@@]2(O)C(O)=C3C(=O)c4c(O)cc(Cl)c([N+]#N)c4CC3CC12` (stereo partly drawn) [D, 8-(Aminocarbonyl)-2-chloro-10-(dimethylamino)-5,6a,10,10a,11,11a,12-octahydro-5,7-dioxo-l-naphthacenediazonium chloride] was tested, and the MIC [1, 19] was 0.5 µg/mL, the MIC [2] was 32 µg/mL and the MIC [3, 20] was 2 µg/mL. For the same molecule, the MIC ([4]; ATCC25922, agar dilution, Muller-Hinton II agar, 18 hours at 35° C., E. coli ATCC 25922, read-out: MIC) was 16 µg/mL, the MIC ([5]; 18 h) was 1 µg/mL and the MIC ([6]; agar dilution, Muller-Hinton II agar, 18 hours at 35° C., S. aureus IVES 2943 (meth. resistant), read-out: MIC) was 16 µg/mL. The MIC [8] was 32 µg/mL, the MIC ([9]; agar dilution, Muller-Hinton II agar, 18 hours at 35° C., S. aureus IVES 1983 (MP) (meth. resistant), read-out: MIC) was 16 µg/mL and the MIC [10] was 0.12 µg/mL. It also gave an MIC [11, 21] of 2 µg/mL, an MIC [12] of 2 µg/mL and an MIC [13] greater than 32 µg/mL. The MIC [14] was 8 µg/mL, the MIC [15] was 32 µg/mL and the MIC [16] was 4 µg/mL. For the same molecule, the MIC [17] was 4 µg/mL.
In the case of `COC(=O)Nc1c(Cl)cc2c(c1O)C(=O)C1=C(O)[C@]3(O)C(=O)C(C(N)=O)=C(O)[C@@H](N(C)C)C3CC1C2` (stereo partly drawn) [I, 7S-(7alpha, 10aalpha)!- 9-(Aminocarbonyl)-3-chloro-7-(dimethylamino)-5,5a,6-6a,7,10,10a,12-octahydro-1,8,10a,11-tetrahydroxy-10,12-dioxo-2-naphthacenyl!-carbamic acid methyl ester], the MIC ([1]; 18 h) was 0.06 µg/mL (≈ 0.115 µM), the MIC [2] was 16 µg/mL (≈ 30.7 µM) and the MIC ([3]; 18 h) was 2 µg/mL (≈ 3.83 µM). The MIC ([4]; ATCC25922, 18 h) was 8 µg/mL (≈ 15.3 µM), the MIC ([5]; 18 h) was 0.5 µg/mL (≈ 0.958 µM) and the MIC ([6]; 18 h) was 4 µg/mL (≈ 7.66 µM). The MIC [7] was 0.06 µg/mL (≈ 0.115 µM), the MIC ([9]; 18 h) was 4 µg/mL (≈ 7.66 µM) and the MIC [10] was less than 0.015 µg/mL. It also gave an MIC [18] of 0.06 µg/mL (≈ 0.115 µM), an MIC ([11]; 18 h) of 0.5 µg/mL (≈ 0.958 µM) and an MIC [12] of 0.5 µg/mL (≈ 0.958 µM). It also gave an MIC [13] greater than 32 µg/mL, an MIC [14] of 2 µg/mL (≈ 3.83 µM) and an MIC [15] of 8 µg/mL (≈ 15.3 µM). It also gave an MIC [16] of 0.5 µg/mL (≈ 0.958 µM) and an MIC [17] of 0.5 µg/mL (≈ 0.958 µM).
